# Experimental data as given in patent US6878751B1, “Administration of resveratrol to treat inflammatory respiratory disorders” (Imperial College of Science Technology and Medicine, priority 2000, dated 2005).
# Tests used:
# IL-8 release, A549 cells = assay: IL-8 release (ELISA) in IL-1β stimulated A549 cells; format: cell-based; conditions: Homo sapiens, 1 ng/ml IL-1β, read-out: EC50 for inhibition of the release of IL-8
# Procedure: The human airway epithelial cell line A549 may be employed to study resveratrol inhibition of the release of IL-8 (interleukin 8) and GM-CSF (granulocyte macrophage-colony stimulating factor) by a 1 ng/ml stimulation with IL-1β (interleukin 1β). A549 cells, BEAS-2B cells and 16HBE-16o^− cells were stimulated with 1 ng/ml levels of IL-1β in the presence of resveratrol.
# Cells, including the A549 cells, were cultured in Dulbecco's modified Eagle's medium (DMEM) 10% (v/v) fetal calf serum (FCS), 100 μg/ml penicillin and 100 μg/ml streptomycin. IL-8 release was measured by commercially available ELISA kit (R&D Systems).
# [1] = system: TRE dependent transcription; assay: TRE (AP-1) luciferase reporter in stably transfected A549 cells; format: cell-based, human
# Procedure: The expression of inflammatory genes was then evaluated in cells transformed with luciferase reporter genes containing sites for transcription factors (Tf, Tfs). The A549 cells were stably transfected by routine methods with luciferase reporters containing the transcription factors NF-κB, TRE (AP-1, TPA responsive element) and CRE (cAMP responsive element). Luciferase activity of cell lysates resuspended in […] cell lysis buffer mixed (40 mml resuspended lysate: 40 mml assay reagent) was measured using the Luciferase Assay System (Promega), with emitted light measured by a Turner DesignsTD-20/20 luminometer (Steptech Instruments Ltd., Stevenage, U.K.)
smiles,measurement,setting,value
"Oc1ccc(/C=C/c2cc(O)cc(O)c2)cc1 [Resveratrol, 3,5,4′-trihydroxystilbene]",EC50,"IL-8 release, A549 cells",72 ± 11 µM
same,extent of inhibition of TRE dependent transcription,[1],85%
same,EC50,"[1]; Homo sapiens, read-out: EC50 for inhibition of TRE dependent transcription",7 ± 4 µM
